Tests used:
Assay type in all cases: cell-based
TAS2R47 = target: T1, TAS2R47 (Homo sapiens, UniProt P59541); experiment: FLIPR calcium imaging of HEK-293T Gα16gust44 cells transiently expressing TAS2R47
T1 construct: expressed in transfected cells; host or cells: HEK-293T cells stably expressing Gα16gust44
T1 sequence (P59541 1-319): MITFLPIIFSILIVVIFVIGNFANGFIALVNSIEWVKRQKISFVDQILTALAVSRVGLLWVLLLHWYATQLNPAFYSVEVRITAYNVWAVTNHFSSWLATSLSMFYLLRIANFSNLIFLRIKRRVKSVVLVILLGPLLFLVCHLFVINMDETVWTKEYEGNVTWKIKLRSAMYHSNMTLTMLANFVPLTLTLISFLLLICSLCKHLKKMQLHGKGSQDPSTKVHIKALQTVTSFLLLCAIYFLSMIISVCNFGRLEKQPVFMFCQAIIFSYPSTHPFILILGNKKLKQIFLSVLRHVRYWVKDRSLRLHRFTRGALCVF
Text: (§1) Functional expression. Human TAS2R cDNA constructs were used that encoded a plasma membrane-targeting sequence of the rat somatostatin type 3 receptor at the N-terminus of the recombinant polypeptide and a herpes simplex virus glycoprotein D (HSV) epitope at its C-terminus (Bufe et al., 2002). The constructs were transiently transfected into HEK-293T cells that stably express the chimeric G-protein subunit Gα16gust44 using Lipofectamine 2000 (Invitrogen, San Diego, Calif.) in 96-well microtiter plates. Calcium imaging experiments using an automated fluorometric imaging plate reader (FLIPR) (Molecular Devices, Munich, Germany) have been performed 24-32 h later essentially as described previously (Bufe et al., 2002). Tastants (Sigma-Aldrich, Taufkirchen, Germany) were dissolved and administered in the following (in mM): 130 NaCl, 5 KCl, 10 HEPES, 2 CaCl2, and 10 mM glucose, pH7.4. Data were collected from 1-2 independent experiments performed at least in triplicate and processed with SigmaPlot (SPSS, Chicago, Ill.). For dose-response curve calculation, the peak fluorescence responses after compound addition were corrected for and normalized to background fluorescence (ΔF/F=(F−F0)/F0), and baseline noise was subtracted. […]

TAS2R46 = target: T2, TAS2R46 (Homo sapiens, UniProt P59540); experiment: FLIPR calcium imaging of HEK-293T Gα16gust44 cells transiently expressing TAS2R46; details: intracellular calcium response
T2 construct: expressed in transfected cells; host or cells: HEK-293T cells stably expressing Gα16gust44
T2 sequence (P59540 with tags, fused parts or gaps): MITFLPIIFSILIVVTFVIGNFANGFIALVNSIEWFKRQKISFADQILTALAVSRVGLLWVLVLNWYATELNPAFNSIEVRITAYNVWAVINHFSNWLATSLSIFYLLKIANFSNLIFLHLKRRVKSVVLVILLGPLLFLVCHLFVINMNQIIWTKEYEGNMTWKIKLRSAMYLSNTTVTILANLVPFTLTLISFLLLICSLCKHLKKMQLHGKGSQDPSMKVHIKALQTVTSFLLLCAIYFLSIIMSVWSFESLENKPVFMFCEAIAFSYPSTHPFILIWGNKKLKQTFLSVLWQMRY
Text: as §1

TAS2R50 = target: T3, TAS2R50 (Homo sapiens, UniProt P59544, C203Y); experiment: FLIPR calcium imaging of HEK-293T Gα16gust44 cells transiently expressing TAS2R50
T3 construct: expressed in transfected cells; host or cells: HEK-293T cells stably expressing Gα16gust44
T3 sequence (P59544 1-299 C203Y): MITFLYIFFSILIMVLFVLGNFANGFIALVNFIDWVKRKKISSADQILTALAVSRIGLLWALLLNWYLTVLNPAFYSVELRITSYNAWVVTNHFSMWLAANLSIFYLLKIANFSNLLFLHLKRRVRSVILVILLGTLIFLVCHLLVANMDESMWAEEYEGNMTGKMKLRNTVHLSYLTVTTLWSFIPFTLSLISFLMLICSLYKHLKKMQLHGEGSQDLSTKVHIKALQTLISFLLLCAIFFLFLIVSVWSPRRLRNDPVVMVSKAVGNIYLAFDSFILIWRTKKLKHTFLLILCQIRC
Text: as §1

Row | molar range at which TAS2R47 responded (TAS2R47; Table 1, assay similar to Example 1) | concentration to which TAS2R46-expressing cells already responded (TAS2R46) | concentration at which TAS2R47-expressing HEK293 cells responded (TAS2R47; intracellular calcium response, 30 μM or higher) | EC50 (TAS2R50; dose-response curve on TAS2R50, FIG. 2, one experiment in triplicate) | response of TAS2R50 in FLIPR calcium imaging (TAS2R50; result in words) | SMILES
1 | 0.3 mM | – | – | – | – | CC12CCC(CC1=O)C2(C)C (centres unmarked) [Camphor, camphor]
2 | – | 3 µM | ≥ 30 µM | 5.6 µM | low micromolar range | C=C1CC[C@@H]2[C@](C)(CO)[C@H](O)CC[C@@]2(C)[C@@H]1C/C=C1/C(=O)OC[C@H]1O [andrographolide]

Reference: US8043823B2, “Methods of identifying agonists and antagonists of hTASR bitter taste receptors” (Deutsches Institut fuer Ernaehrungsforschung, priority 2007, dated 2011)
